pIC50: −log10 of the molar value.
Assays:
[1] = target: Leucine-rich repeat serine/threonine-protein kinase 2 (Homo sapiens, UniProt Q5S007, G2019S); assay: Inhibition of LRRK2 G2019S mutant (unknown origin)
[2] = target: Leucine-rich repeat serine/threonine-protein kinase 2 (Homo sapiens, UniProt Q5S007); assay: Inhibition of wild type LRRK2 (unknown origin) assessed as inhibition of LRRKtide phosphorylation after 120 mins by radiometric assay in presence of [gamma-33P]-ATP
[3] = target: Tyrosine-protein kinase JAK2 (Homo sapiens) (UniProt O60674); assay: Inhibition of JAK2 JH1 catalytic domain (unknown origin) at 10 uM relative to control
Tyrosine-protein kinase JAK2 (Homo sapiens), sequence (O60674 whole entry, the tested form may be a part): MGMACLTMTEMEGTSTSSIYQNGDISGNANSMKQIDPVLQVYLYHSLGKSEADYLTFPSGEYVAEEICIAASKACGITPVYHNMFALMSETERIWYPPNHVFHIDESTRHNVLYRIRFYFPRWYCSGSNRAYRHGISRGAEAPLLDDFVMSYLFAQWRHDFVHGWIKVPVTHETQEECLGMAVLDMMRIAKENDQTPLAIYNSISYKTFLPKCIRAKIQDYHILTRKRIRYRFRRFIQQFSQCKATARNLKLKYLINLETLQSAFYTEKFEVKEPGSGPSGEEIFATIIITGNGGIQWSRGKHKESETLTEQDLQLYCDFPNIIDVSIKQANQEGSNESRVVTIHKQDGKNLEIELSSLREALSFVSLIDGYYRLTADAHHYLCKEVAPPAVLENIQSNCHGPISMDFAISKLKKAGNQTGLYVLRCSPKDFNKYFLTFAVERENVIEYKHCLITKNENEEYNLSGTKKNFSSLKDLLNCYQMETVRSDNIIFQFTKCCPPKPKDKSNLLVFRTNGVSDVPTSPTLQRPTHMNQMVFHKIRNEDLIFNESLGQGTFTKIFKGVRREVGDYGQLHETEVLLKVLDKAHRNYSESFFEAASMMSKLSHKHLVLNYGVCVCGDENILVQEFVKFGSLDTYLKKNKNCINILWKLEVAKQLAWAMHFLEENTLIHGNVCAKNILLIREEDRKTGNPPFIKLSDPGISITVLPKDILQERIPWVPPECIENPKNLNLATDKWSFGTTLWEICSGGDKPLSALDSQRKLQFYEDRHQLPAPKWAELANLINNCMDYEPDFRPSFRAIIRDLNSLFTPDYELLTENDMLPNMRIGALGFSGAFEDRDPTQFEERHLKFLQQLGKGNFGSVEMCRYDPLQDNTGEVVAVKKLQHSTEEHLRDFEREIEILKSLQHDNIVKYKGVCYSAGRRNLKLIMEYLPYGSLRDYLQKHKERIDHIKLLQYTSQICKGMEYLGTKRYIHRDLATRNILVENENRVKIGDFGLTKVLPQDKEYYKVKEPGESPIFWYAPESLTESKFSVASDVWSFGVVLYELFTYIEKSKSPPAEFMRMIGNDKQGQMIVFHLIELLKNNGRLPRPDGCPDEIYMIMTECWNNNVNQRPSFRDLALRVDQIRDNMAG

Leucine-rich repeat serine/threonine-protein kinase 2 (Homo sapiens, UniProt Q5S007), sequence (Q5S007 whole entry, the tested form may be a part): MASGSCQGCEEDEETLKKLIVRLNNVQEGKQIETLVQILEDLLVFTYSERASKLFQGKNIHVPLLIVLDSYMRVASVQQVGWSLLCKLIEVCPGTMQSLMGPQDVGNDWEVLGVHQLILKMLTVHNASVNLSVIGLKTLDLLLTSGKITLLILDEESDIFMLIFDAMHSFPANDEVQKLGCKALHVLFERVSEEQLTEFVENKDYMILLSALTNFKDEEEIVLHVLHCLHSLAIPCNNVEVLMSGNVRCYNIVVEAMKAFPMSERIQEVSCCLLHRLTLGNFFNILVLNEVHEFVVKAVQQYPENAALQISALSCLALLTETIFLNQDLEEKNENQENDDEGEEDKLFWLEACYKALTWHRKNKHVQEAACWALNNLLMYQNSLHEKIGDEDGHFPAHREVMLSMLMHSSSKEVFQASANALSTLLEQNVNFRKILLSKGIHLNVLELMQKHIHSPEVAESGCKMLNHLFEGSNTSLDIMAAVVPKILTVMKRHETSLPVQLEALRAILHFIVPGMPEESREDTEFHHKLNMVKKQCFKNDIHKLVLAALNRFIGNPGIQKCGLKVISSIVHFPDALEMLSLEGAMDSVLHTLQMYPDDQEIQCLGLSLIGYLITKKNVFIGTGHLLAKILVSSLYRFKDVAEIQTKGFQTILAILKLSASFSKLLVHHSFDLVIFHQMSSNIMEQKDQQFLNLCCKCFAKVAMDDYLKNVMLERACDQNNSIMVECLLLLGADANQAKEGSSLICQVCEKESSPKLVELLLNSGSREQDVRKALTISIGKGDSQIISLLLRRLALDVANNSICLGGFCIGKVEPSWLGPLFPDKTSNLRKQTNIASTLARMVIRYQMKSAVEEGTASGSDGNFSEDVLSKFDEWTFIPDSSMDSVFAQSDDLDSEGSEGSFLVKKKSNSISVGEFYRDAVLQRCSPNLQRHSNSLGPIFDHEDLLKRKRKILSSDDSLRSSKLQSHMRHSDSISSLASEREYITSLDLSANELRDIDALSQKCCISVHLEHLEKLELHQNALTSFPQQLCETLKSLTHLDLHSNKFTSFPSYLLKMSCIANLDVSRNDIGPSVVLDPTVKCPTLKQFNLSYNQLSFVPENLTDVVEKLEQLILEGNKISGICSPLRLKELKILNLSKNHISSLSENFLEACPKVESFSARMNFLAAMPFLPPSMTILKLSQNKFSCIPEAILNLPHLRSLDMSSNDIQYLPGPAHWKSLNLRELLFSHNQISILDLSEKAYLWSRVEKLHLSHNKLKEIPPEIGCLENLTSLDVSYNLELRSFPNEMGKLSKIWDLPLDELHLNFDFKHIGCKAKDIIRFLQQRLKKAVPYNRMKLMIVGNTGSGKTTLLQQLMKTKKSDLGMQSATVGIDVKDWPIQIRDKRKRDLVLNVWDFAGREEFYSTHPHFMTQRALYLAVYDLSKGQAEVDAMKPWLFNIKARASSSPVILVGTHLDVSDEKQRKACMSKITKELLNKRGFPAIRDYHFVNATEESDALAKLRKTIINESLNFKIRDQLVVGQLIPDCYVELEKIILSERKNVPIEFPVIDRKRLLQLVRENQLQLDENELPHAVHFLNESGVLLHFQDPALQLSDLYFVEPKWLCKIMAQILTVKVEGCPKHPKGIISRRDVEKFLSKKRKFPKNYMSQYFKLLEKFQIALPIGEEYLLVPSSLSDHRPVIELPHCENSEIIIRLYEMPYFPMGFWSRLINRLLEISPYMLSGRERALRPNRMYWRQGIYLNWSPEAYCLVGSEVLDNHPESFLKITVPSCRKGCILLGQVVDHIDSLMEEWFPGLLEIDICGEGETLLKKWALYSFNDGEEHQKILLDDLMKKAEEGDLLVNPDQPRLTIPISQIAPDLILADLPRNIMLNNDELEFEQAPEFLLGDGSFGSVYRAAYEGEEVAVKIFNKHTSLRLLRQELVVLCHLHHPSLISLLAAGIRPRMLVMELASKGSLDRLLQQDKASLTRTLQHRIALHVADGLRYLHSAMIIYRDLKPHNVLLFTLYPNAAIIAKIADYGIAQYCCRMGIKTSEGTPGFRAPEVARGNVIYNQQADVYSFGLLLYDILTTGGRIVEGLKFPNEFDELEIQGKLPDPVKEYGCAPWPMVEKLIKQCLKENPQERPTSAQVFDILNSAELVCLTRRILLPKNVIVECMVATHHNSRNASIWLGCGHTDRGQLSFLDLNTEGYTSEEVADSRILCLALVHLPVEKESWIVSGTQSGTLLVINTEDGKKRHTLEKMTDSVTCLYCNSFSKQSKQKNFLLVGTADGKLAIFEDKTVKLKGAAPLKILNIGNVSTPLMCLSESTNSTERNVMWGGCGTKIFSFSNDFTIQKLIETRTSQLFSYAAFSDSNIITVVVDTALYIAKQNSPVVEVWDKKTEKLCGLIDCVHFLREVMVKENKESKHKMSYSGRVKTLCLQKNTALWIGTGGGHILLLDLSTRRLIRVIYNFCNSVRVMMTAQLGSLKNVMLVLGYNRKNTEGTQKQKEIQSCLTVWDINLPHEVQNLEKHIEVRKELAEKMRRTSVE
Leucine-rich repeat serine/threonine-protein kinase 2 (Homo sapiens, UniProt Q5S007, G2019S), sequence (Q5S007 whole entry G2019S): as the sequence (Q5S007 whole entry, the tested form may be a part) above, with G2019S counted along it

Structure (SMILES) | pIC50 [1] | pIC50 [2] | inhibition [3]
Cc1ccc(NC(=O)c2ccc(CN3CCNCC3)cc2)cc1Nc1nccc(-c2cccnc2)n1 | 5.48 | 5.34 | 
N#Cc1ccc(Nc2ccc3[nH]c(=O)[nH]c3c2)c([N+](=O)[O-])c1 |  |  | 74%
CC(c1ccc(NC(=O)c2cc(C3CC3)[nH]n2)cc1)N1CCOCC1 (configuration not stated) | 5.72 | 5.32 | 
O=C(NCCO)c1ccc(Nc2nc(-c3ccccc3)c3cc(Cl)ccc3n2)cc1 | 5.70 | 5.55 | 
